Values quoted from earlier work in US11723862B2, “Dosage form with sustained release melatonin pellets” (SOCIÉTÉ DES PRODUITS NESTLÉ S.A., priority 2020, dated 2023).

Conditions: above pH=4.4

aqueous solubility: low
SMILES: COc1ccc2[nH]cc(CCNC(C)=O)c2c1 [melatonin]
